Measurements from patent US20160318987A1 (MEDIMMUNE LIMITED, priority 2013, published 2016).
Where a SMILES comes first, the peptide text is derived from it. [ ]: non-standard residue; d: D form. The star is where a group is joined. Palmitoyl = CCCCCCCCCCCCCCCC(=O)*; αMeF = C[C@](N)(Cc1ccccc1)C(=O)O; αMeK = C[C@](N)(CCCCN)C(=O)O; αMeV = CC(C)[C@](C)(N)C(=O)O; Aib = CC(C)(N)C(=O)O

Tests used:
Chymotrypsin (rhCTRC) = target: T1, Chymotrypsin (rhCTRC) (Homo sapiens, UniProt Q99895); assay: chymotrypsin stability study (LC/MS); assay type: in vitro ADME; conditions: for Chymotrypsin cleavage/liability (Discussion / Description): Table 2 description
T1 construct: purchased R&D Systems 6907-SE-010
T1 sequence (Q99895 30-268): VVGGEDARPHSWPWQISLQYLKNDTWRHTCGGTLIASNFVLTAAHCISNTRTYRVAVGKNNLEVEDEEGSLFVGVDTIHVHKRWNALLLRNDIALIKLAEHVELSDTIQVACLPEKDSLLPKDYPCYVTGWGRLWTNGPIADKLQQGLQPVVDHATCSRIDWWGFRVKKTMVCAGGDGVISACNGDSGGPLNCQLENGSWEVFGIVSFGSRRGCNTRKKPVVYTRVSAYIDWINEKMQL
Description: (§1) Peptides for evaluation were prepared to a concentration of 1.0 mg/mL solutions in either pure water, sterile saline for injection (0.9% w/v NaCl/water) or 1× PBS (Dulbecco). 100 μL (100 μg/mL peptide) of these solutions was added to 900 μL of each protease solution. Additional experiments were performed examining protein degradation during exposure to serum and gastric fluid. For serum studies, peptides were incubated with 50% female Sprague-Dawley strain rat serum (SD rat serum). For gastric fluid studies, peptides were incubated 1:1 (volume:volume), fresh rat gastric fluid.
(§2) The peptide and enzyme (or serum or gastric fluid) were co-incubated in a temperature regulated water bath at 37° C. for the duration of the experiment. During each experiment 100 μL aliquots (10 μg peptide) of the incubated peptide-enzyme mixture were withdrawn periodically, quenched by addition of an equal volume of 5% TFA (v/v) in 1:1 water/acetonitrile to arrest proteolytic activity, and analyzed by liquid chromatography-mass spectrometry (LC/MS): Agilent Polaris C8-A column (4.6×100 mm, 3 micron) using a linear binary gradient of 10-90% MeCN (0.1% TFA v/v) in water (0.1% TFA v/v) over 30 minutes at 1.5 mL min^−1 at ambient temperature. Analytes were detected by both UV absorption at 210 nm and ionization using a Waters 3100 mass detector (ESI^+ mode). New peptidic species (fragments) derived from enzymatic cleavage of peptides were analyzed post-process, and their molecular masses were used to identify the precise cleavage position (highlighting the scissile bond in each case).

hGIP-R = target: T2, hGIP-R (Homo sapiens, UniProt P48546); assay: cAMP functional assay, cells expressing human GIP receptor (primary assay); assay type: cell-based; conditions: n = 2
T2 construct: expressed in transfected cells
T2 sequence (P48546 22-466): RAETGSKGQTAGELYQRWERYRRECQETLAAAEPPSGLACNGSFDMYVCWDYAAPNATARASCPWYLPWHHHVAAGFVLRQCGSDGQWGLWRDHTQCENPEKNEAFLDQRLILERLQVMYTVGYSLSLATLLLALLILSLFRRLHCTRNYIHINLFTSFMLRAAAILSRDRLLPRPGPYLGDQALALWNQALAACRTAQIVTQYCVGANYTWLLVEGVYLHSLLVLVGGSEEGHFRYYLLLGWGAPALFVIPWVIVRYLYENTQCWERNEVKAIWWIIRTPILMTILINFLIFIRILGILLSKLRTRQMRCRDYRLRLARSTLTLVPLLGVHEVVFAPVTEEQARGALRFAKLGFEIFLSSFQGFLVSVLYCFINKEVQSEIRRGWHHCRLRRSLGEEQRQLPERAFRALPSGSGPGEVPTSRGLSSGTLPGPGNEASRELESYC

hGLP-1R = target: T3, hGLP-1R (Homo sapiens, UniProt P43220); assay: cAMP functional assay, cells expressing human GLP-1 receptor (primary assay); assay type: cell-based; conditions: n = 2
T3 construct: expressed in transfected cells
T3 sequence (P43220 24-463): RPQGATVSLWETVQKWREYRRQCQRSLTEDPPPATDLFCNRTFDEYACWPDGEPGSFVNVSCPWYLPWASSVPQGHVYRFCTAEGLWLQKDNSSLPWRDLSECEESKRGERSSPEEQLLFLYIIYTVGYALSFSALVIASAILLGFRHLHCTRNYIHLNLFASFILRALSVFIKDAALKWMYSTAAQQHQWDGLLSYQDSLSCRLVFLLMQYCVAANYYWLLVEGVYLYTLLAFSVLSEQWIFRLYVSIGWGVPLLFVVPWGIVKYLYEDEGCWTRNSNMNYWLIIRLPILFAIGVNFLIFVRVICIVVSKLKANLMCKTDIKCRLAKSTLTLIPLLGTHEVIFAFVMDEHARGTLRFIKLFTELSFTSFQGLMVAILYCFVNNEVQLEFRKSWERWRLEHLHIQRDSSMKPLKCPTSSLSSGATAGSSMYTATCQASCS

[1] = target: T4, trypsin from porcine pancreas (Sus scrofa, UniProt P00761); assay: trypsin stability study (LC/MS); assay type: in vitro ADME
T4 construct: purchased Sigma P7409; host or cells: porcine pancreas
T4 sequence (P00761 9-231): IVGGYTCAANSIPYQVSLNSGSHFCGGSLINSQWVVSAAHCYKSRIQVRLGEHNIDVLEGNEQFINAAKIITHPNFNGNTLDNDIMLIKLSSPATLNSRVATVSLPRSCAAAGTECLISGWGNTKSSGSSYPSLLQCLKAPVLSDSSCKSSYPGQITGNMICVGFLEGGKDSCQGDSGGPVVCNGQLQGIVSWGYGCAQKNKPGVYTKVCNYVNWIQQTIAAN
Description: as §1, §2

hGluc-R = target: T5, hGluc-R (Homo sapiens, UniProt P47871); assay: cAMP functional assay, cells expressing human glucagon receptor (primary assay); assay type: cell-based; conditions: n = 2
T5 construct: expressed in transfected cells
T5 sequence (P47871 26-477): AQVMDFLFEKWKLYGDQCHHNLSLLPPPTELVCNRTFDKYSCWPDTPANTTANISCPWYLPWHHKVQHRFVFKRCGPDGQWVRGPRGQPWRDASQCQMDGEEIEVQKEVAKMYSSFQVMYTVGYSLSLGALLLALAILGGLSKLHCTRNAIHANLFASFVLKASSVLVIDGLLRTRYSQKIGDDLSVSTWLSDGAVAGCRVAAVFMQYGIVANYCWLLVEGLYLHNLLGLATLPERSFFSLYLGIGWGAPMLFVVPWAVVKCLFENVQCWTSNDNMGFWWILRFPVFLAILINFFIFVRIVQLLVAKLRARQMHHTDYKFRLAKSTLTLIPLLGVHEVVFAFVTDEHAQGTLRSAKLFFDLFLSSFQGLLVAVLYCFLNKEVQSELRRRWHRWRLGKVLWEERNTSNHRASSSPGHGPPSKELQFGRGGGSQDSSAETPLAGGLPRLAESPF

Neprilysin (rhNEP) = target: T6, Neprilysin (rhNEP) (Homo sapiens, UniProt P08473); assay: neprilysin stability study (LC/MS); assay type: in vitro ADME; conditions: Table 2 description
T6 construct: purchased R&D Systems 1182-ZNC-010
T6 sequence (P08473 52-750 limits assumed): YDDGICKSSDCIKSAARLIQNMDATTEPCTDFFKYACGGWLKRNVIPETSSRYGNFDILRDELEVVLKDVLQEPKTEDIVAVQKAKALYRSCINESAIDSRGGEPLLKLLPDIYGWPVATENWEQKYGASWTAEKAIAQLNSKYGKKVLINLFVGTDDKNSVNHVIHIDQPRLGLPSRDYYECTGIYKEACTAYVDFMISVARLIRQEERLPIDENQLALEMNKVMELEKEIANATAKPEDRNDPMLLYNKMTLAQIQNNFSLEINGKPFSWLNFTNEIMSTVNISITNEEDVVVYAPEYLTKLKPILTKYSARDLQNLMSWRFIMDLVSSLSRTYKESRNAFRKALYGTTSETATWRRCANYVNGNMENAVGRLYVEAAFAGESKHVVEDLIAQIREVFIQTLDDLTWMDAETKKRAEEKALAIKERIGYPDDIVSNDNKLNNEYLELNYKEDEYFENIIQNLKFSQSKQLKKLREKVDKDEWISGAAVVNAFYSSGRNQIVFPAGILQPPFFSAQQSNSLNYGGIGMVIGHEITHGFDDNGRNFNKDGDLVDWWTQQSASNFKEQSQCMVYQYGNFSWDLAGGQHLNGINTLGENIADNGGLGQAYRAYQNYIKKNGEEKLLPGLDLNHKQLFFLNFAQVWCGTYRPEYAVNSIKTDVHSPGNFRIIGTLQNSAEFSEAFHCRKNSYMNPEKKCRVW
Description: as §1, §2

[2] = test system: DPP-IV, Neprilysin, Chymotrypsin, Trypsin, Pepsin; assay: enzyme resistance, protease panel (Table 2 description); assay type: in vitro ADME
Description: as §1, §2

[3] = gastric fluid stability study (LC/MS); assay type: in vitro ADME, rat
Description: as §1, §2

SMILES | Chymotrypsin cleavage/liability (Discussion / Description) (Chymotrypsin (rhCTRC)) | EC50 (hGIP-R) [nM] | EC50 (hGLP-1R) [nM] | Trypsin resistance/susceptibility (Discussion / Description) ([1]; Table 2 description) | EC50 (hGluc-R) [nM] | Neprilysin resistance (Discussion / Description) (Neprilysin (rhNEP)) | duration of stability, no major cleavage products (Chymotrypsin (rhCTRC); chymotrypsin, 37° C.) | duration of stability ([1]; trypsin, 37° C.) | enzyme resistance (DPP-IV, Neprilysin, Chymotrypsin, Trypsin, Pepsin) [2] | stability relative to Liraglutide ([3]; rat gastric fluid 1:1) | stability relative to lipidated comparator SEQ ID NO: 5 ([3]; rat gastric fluid 1:1) | spectrum over the time course ([3]; rat gastric fluid, zoomed spectra)
CC[C@H](C)[C@H](NC(=O)[C@](C)(Cc1ccccc1)NC(=O)[C@H](CCC(=O)O)NC(=O)[C@H](CCCCN)NC(=O)[C@H](C)NC(=O)[C@H](C)NC(=O)[C@H](CCC(N)=O)NC(=O)CNC(=O)[C@H](CCC(=O)O)NC(=O)[C@H](CC(C)C)NC(=O)[C@](C)(Cc1ccccc1)NC(=O)[C@H](CO)NC(=O)[C@H](CO)NC(=O)[C@@H](NC(=O)[C@H](CC(=O)O)NC(=O)[C@H](CO)NC(=O)[C@@H](NC(=O)[C@](C)(Cc1ccccc1)NC(=O)[C@H](CO)NC(=O)CNC(=O)[C@H](CCC(=O)O)NC(=O)C(C)(C)NC(=O)[C@@H](N)Cc1c[nH]cn1)[C@@H](C)O)C(C)C)C(=O)N[C@@H](C)C(=O)N[C@@](C)(Cc1ccccc1)C(=O)N[C@@H](CC(C)C)C(=O)N[C@](C)(C(=O)N[C@@H](CCCCN)C(=O)NCC(=O)N[C@@H](CCCNC(=N)N)C(N)=O)C(C)C [SEQ ID NO: 41, H-(Aib)^2-EG-(S)^5-(α-MeF)^6-TSDV^10 SS-(α-MeF)^13-LE^15 GQAAK^20 E-(α-MeF)^22-IA-(α-MeF)^25 L-(α-MeV)^27-KGR^30] (H-H[Aib]EGS[αMeF]TSDVSS[αMeF]LEGQAAKE[αMeF]IA[αMeF]L[αMeV]KGR-NH2) | MeVal^27 overcomes | 102 | 0.0546 | – | – | – | – | – | – | – | – | –
CC[C@H](C)[C@H](NC(=O)[C@](C)(Cc1ccccc1)NC(=O)[C@H](CCC(=O)O)NC(=O)[C@](C)(CCCCN)NC(=O)[C@H](C)NC(=O)[C@H](C)NC(=O)[C@H](CCC(N)=O)NC(=O)CNC(=O)[C@H](CCC(=O)O)NC(=O)[C@H](CC(C)C)NC(=O)[C@](C)(Cc1ccccc1)NC(=O)[C@H](CO)NC(=O)[C@H](CO)NC(=O)[C@@H](NC(=O)[C@H](CC(=O)O)NC(=O)[C@H](CO)NC(=O)[C@@H](NC(=O)[C@](C)(Cc1ccccc1)NC(=O)[C@H](CO)NC(=O)CNC(=O)[C@H](CCC(=O)O)NC(=O)C(C)(C)NC(=O)[C@@H](N)Cc1c[nH]cn1)[C@@H](C)O)C(C)C)C(=O)N[C@@H](C)C(=O)N[C@@](C)(Cc1ccccc1)C(=O)N[C@@H](CC(C)C)C(=O)N[C@H](C(=O)N[C@@](C)(CCCCN)C(=O)NCC(=O)NCC(N)=O)C(C)C [SEQ ID NO: 46, H-(Aib)^2-EG-(S)^5-(α-MeF)^6-TSDV^10 SS-(α-MeF)^13-LE^15 GQAA-(α-MeK)^20 E-(α-MeF)^22-IA-(α-MeF)^25 LV-(α-MeK)^28-G-(G)^30] (H-H[Aib]EGS[αMeF]TSDVSS[αMeF]LEGQAA[αMeK]E[αMeF]IA[αMeF]LV[αMeK]GG-NH2) | – | 103 | 0.0141 | resistance, maintaining | 103 | resistance, maintaining | – | – | – | – | – | –
CC[C@H](C)[C@H](NC(=O)[C@](C)(Cc1ccccc1)NC(=O)[C@H](CCC(=O)O)NC(=O)[C@](C)(CCCCN)NC(=O)[C@H](C)NC(=O)[C@H](C)NC(=O)[C@H](CCC(N)=O)NC(=O)CNC(=O)[C@H](CCC(=O)O)NC(=O)[C@H](CC(C)C)NC(=O)[C@](C)(Cc1ccccc1)NC(=O)[C@H](CO)NC(=O)[C@H](CO)NC(=O)[C@@H](NC(=O)[C@H](CC(=O)O)NC(=O)[C@H](CO)NC(=O)[C@@H](NC(=O)[C@](C)(Cc1ccccc1)NC(=O)[C@H](CO)NC(=O)CNC(=O)[C@H](CCC(=O)O)NC(=O)C(C)(C)NC(=O)[C@@H](N)Cc1c[nH]cn1)[C@@H](C)O)C(C)C)C(=O)N[C@@H](C)C(=O)N[C@@](C)(Cc1ccccc1)C(=O)N[C@H](C(=O)N[C@H](C(=O)N[C@@](C)(CCCCN)C(=O)NCC(=O)NCC(N)=O)C(C)C)C(C)C [SEQ ID NO: 51, H-(Aib)^2-EG-(S)^5-(α-MeF)^6-TSDV^10 SS-(α-MeF)^13-LE^15 GQAA-(α-MeK)^20 E-(α-MeF)^22-IA-(α-MeF)^25-(V)^26-V-(α-MeK)^28-G-(G)^30] (H-H[Aib]EGS[αMeF]TSDVSS[αMeF]LEGQAA[αMeK]E[αMeF]IA[αMeF]VV[αMeK]GG-NH2) | overcoming Chymotrypsin | 104 | 0.0219 | – | 104 | – | over 60 hours | over 18 hours | – | – | – | –
CCCCCCCCCCCCCCCC(=O)NCCCC[C@H](NC(=O)CNC(=O)CNC(=O)[C@](C)(CCCCN)NC(=O)[C@@H](NC(=O)[C@@H](NC(=O)[C@](C)(Cc1ccccc1)NC(=O)[C@H](C)NC(=O)[C@@H](NC(=O)[C@](C)(Cc1ccccc1)NC(=O)[C@H](CCC(=O)O)NC(=O)[C@](C)(CCCCN)NC(=O)[C@H](C)NC(=O)[C@H](C)NC(=O)[C@H](CCC(N)=O)NC(=O)CNC(=O)[C@H](CCC(=O)O)NC(=O)[C@H](CC(C)C)NC(=O)[C@](C)(Cc1ccccc1)NC(=O)[C@H](CO)NC(=O)[C@H](CO)NC(=O)[C@@H](NC(=O)[C@H](CC(=O)O)NC(=O)[C@H](CO)NC(=O)[C@@H](NC(=O)[C@](C)(Cc1ccccc1)NC(=O)[C@H](CO)NC(=O)CNC(=O)[C@H](CCC(=O)O)NC(=O)C(C)(C)NC(=O)[C@@H](N)Cc1c[nH]cn1)[C@@H](C)O)C(C)C)[C@@H](C)CC)C(C)C)C(C)C)C(N)=O [SEQ ID NO: 52, H-(Aib)^2-EG-(S)^5-(α-MeF)^6-TSDV^10 SS-(α-MeF)^13-LE^15 GQAA-(α-MeK)^20 E-(α-MeF)^22-IA-(α-MeF)^25-(V)^26-V-(α-MeK)^28-G-(G)^30-K(Ε-Palm)] (H-H[Aib]EGS[αMeF]TSDVSS[αMeF]LEGQAA[αMeK]E[αMeF]IA[αMeF]VV[αMeK]GGK(Palmitoyl)-NH2) | – | 93.1 | 0.41 | – | 93.1 | – | – | – | excellent enzyme resistance | significantly exceeds | significantly exceeds | virtually unchanged spectrum
CC[C@H](C)[C@H](NC(=O)[C@](C)(Cc1ccccc1)NC(=O)[C@H](CCC(=O)O)NC(=O)[C@](C)(CCCCN)NC(=O)[C@H](C)NC(=O)[C@H](C)NC(=O)[C@H](CCC(=O)O)NC(=O)CNC(=O)[C@H](CCC(=O)O)NC(=O)[C@H](CC(C)C)NC(=O)[C@](C)(Cc1ccccc1)NC(=O)[C@H](CO)NC(=O)[C@H](CO)NC(=O)[C@@H](NC(=O)[C@H](CC(=O)O)NC(=O)[C@H](CO)NC(=O)[C@@H](NC(=O)[C@](C)(Cc1ccccc1)NC(=O)[C@H](CO)NC(=O)CNC(=O)[C@H](CCC(=O)O)NC(=O)C(C)(C)NC(=O)[C@@H](N)Cc1c[nH]cn1)[C@@H](C)O)C(C)C)C(=O)N[C@@H](C)C(=O)N[C@@](C)(Cc1ccccc1)C(=O)N[C@H](C(=O)N[C@H](C(=O)N[C@@](C)(CCCCN)C(=O)NCC(=O)NCC(=O)N[C@@H](CCCCN)C(N)=O)C(C)C)C(C)C [SEQ ID NO: 61, H-(Aib)^2-EG-(S)^5-(α-MeF)^6-TSDV^10 SS-(α-MeF)^13-LE^15 G-(E)^17-AA-(α-MeK)^20 E-(α-MeF)^22-IA-(α-MeF)^25-(V)^26-V-(α-MeK)^28-G-(G)^30-(K)^31] (H-H[Aib]EGS[αMeF]TSDVSS[αMeF]LEGEAA[αMeK]E[αMeF]IA[αMeF]VV[αMeK]GGK-NH2) | – | 99.7 | 0.034 | – | 30.4 | – | – | – | Excellent enzyme resistance | – | – | –
